Data reported in the PolyMetriX glass transition set.
± gives the standard deviation of the reports.

SMILES	glass transition temperature [°C]
*C(=O)Nc1ccc(S(=O)(=O)c2ccc(NC(=O)c3ccc4c(c3)C(=O)N(c3cccc(P(=O)(c5ccccc5)c5cccc(N6C(=O)c7ccc(*)cc7C6=O)c5)c3)C4=O)cc2)cc1 (repeat unit)	241.00
*CC(*)OC(=O)C(C)(C(C)C)C(C)C (repeat unit)	120.00
*CC(*)OCCCCC (repeat unit) [Poly(vinyl n-pentyl ether)]	-66 ± 0.6
*c1ccc(-c2sc(-c3ccc(-n4c(=O)c5cc6c(=O)n(*)c(=O)c6cc5c4=O)cc3)c(-c3ccccc3)c2-c2ccccc2)cc1 (repeat unit)	460.00
*CC(CO*)C(C)(C)C (repeat unit)	-4.00
*c1cccc(NC(=O)CCCCCCCC(=O)Nc2cccc(S(*)(=O)=O)c2)c1 (repeat unit)	125.00
*c1ccc(Oc2ccc(C(C)(C)c3ccc(Oc4ccc(-c5ccc(*)s5)cc4C(F)(F)F)cc3)cc2)c(C(F)(F)F)c1 (repeat unit)	130.00
*CCSSCCOCO* (repeat unit)	-57.50
*CC(C)(CO*)COCC(F)(F)F (repeat unit)	-41.00
*CC(*)(C)C(=O)OCCCCCn1c2ccccc2c2ccccc21 (repeat unit)	91.00
*CC(*)F (repeat unit) [Poly(vinyl fluoride)]	33.92 ± 10
*CCCC(*)(C)C (repeat unit)	-20.00
*/C(C)=C(/*)SCCCCCC (repeat unit)	110.00
*CC(*)c1cccc(NC(C)=O)c1 (repeat unit)	163.00
*C(=O)Nc1ccc(Cc2ccc(N3C(=O)CC(N4C(=O)c5ccc(*)cc5C4=O)C3=O)cc2)cc1 (repeat unit)	123.00
*C(=O)OCCOCCOCCOC(=O)c1ccc(N2C(=O)c3ccc(*)cc3C2=O)cc1 (repeat unit)	63.00
*c1ccc(-c2ccc(N3C(=O)c4ccc(Oc5ccc6c(c5)C(=O)N(*)C6=O)cc4C3=O)cc2C)c(C)c1 (repeat unit)	325.00
*c1ccc(Oc2ccc(-n3c(=O)c4cc5c(=O)n(-c6ncc(*)s6)c(=O)c5cc4c3=O)cc2)cc1 (repeat unit)	328.80
*C(=O)c1ccc2c(c1)C(=O)N(c1cccc(OP(=O)(Oc3cccc(N4C(=O)c5ccc(*)cc5C4=O)c3)c3ccccc3)c1)C2=O (repeat unit)	176.50
*c1ccc(Oc2ccc(C(=O)c3ccc(Cc4ccc(C(=O)c5ccc(Oc6ccc(-c7nc(-c8ccccc8)[nH]c7*)cc6)cc5)cc4)cc3)cc2)cc1 (repeat unit)	231.00
*c1ccc(Oc2ccc(C(=O)c3ccc(Oc4ccc(-c5c6c(c(*)c7ccccc57)C(=O)N(c5ccc(F)cc5)C6=O)cc4)cc3)cc2)cc1 (repeat unit)	290.00

Next, values leading:

glass transition temperature [°C]	SMILES
45.00	*Oc1ccc(CC(NC(=O)CCc2ccc(OC(=O)COCCOCC(*)=O)cc2)C(=O)OCCCC)cc1 (repeat unit)
154.00	*c1cc(C(=O)Oc2cccc3cccnc23)c(*)s1 (repeat unit)
140.00	*c1ccc(NC(=O)c2ccc(OCCOCCOCCOCCOc3ccc(C(=O)Nc4ccc5[nH]c(*)nc5c4)cc3)cc2)cc1 (repeat unit)
91.00	*Oc1ccc(OC(=O)c2cc(OCCCc3ccccc3)c(C(*)=O)cc2OCCCc2ccccc2)cc1C (repeat unit)
278.00	*C(=O)Nc1ccc(/N=N/c2ccc([N+](=O)[O-])cc2)c(NC(=O)c2ccc3c(c2)C(=O)N(c2c(C)cc(-c4cc(C)c(N5C(=O)c6ccc(*)cc6C5=O)c(C)c4)cc2C)C3=O)c1 (repeat unit)
156.00	*c1ccc(Sc2cc3c(cc2Sc2ccc(N4C(=O)c5ccc(Oc6ccc7c(c6)C(=O)N(*)C7=O)cc5C4=O)cc2)C(=O)N(CCCCCCCCCCCCCCCC)C3=O)cc1 (repeat unit)
99.00	*CC(O)CN(*)c1ccc(/N=N/c2ccc(C(=O)O)cc2)cc1 (repeat unit)
130.00	*C(=O)OCCCCOC(=O)c1ccc(NC(=O)c2ccc(N3C(=O)c4ccc(*)cc4C3=O)cc2)cc1 (repeat unit)
174.00	*Oc1ccc(C(=O)c2ccccc2)c(-c2cc(Oc3ccc(-c4ccc(*)cc4)cc3)ccc2C(=O)c2ccccc2)c1 (repeat unit)
194.00	*Oc1ccc(S(=O)(=O)c2ccc(Oc3ccc(/C=C4\CCC/C(=C\c5ccc(Oc6ccc(S(=O)(=O)c7ccc(Oc8ccc(C(C)(C)c9ccc(*)cc9)cc8)cc7)cc6)cc5)C4=O)cc3)cc2)cc1 (repeat unit)
238.00	*c1cccc(N2C(=O)c3cccc(Oc4ccc(Oc5ccc(Oc6cccc7c6C(=O)N(*)C7=O)cc5)cc4)c3C2=O)c1 (repeat unit)
59.00	*/C=C/C1CC(*)C2C(=O)N(CCCCCCC)C(=O)C12 (repeat unit)
140.00	*CC(*)C(=O)Oc1ccc(/N=N/c2ccc(OC)cc2)cc1 (repeat unit)
420.00	*c1cccc(-c2nc3ccc(-c4ccc5nc(*)[nH]c5c4)cc3[nH]2)c1 (repeat unit)
250.00	*C(=O)Nc1cc(C(c2cc(C)c(C)c(NC(=O)c3ccc4c(c3)C(=O)N(c3cccc5c(N6C(=O)c7ccc(*)cc7C6=O)cccc35)C4=O)c2)(C(F)(F)F)C(F)(F)F)cc(C)c1C (repeat unit)
205.00	*c1ccc(-c2nnc(*)o2)c(OCCCCC)c1 (repeat unit)
61.00	*CC(*)(Cl)C(=O)OCCC(F)(F)C(F)(F)C(F)(F)C(F)(F)C(F)(F)C(F)(F)C(F)(F)C(F)(F)F (repeat unit)
116.00	*Cc1ccc(C(C)c2ccc(Cn3c(=O)c4cc5c(=O)n(*)c(=O)c5cc4c3=O)o2)o1 (repeat unit)
147.00	*Oc1ccc(Oc2ccc(C(=O)c3ccc(C(=O)c4ccc(*)cc4)cc3)cc2)cc1-c1ccc(Cl)c(C(F)(F)F)c1 (repeat unit)
230.00	*Oc1ccc(C(C)(C)c2ccc(Oc3ccc(C(=O)Nc4ccc(NC(=O)c5ccc(*)cc5)cc4)cc3)cc2)cc1 (repeat unit)
249.00	*Oc1ccc(S(=O)(=O)c2ccc(OC(=O)c3cccc(C(*)=O)c3)cc2)cc1 (repeat unit)
113.00	*CC1CCC(CNC(=O)CCCCC(=O)N*)CC1 (repeat unit)
275.00	*Nc1ccccc1-c1ccc(NC(=O)c2ccc(C(*)=O)cc2)cc1 (repeat unit)
120.00	*CC(*)(C)C(=O)Oc1ccc(/N=N/c2ccc(OC)cc2)cc1 (repeat unit)
74.00	*c1cccc(S(=O)(=O)NCCCCCNS(*)(=O)=O)c1 (repeat unit)
-53.00	*c1ccc([Si](CCCC)(CCCC)[Si](*)(CCCC)CCCC)s1 (repeat unit)
-68.00	*CC(*)C(=O)OCC(F)(F)C(F)(F)OC(F)(F)C(F)(F)C(F)(F)F (repeat unit)
62.50	*CC(COC(=O)c1ccc(N2C(=O)C3C4C=CC(C4)C3C2=O)cc1)O* (repeat unit)
